Laboratory results reported in patent US20260306500A1, “METHOD OF INHIBITING ADENOSINE TRIPHOSPHATE SECRETION, METHOD OF INHIBITING HEPATIC STELLATE CELL ACTIVATION, METHOD OF DEACTIVATING HEPATIC STELLATE CELL, METHOD OF TREATING HEPATIC FIBROSIS, METHOD OF TREATING NON-ALCOHOLIC STEATOHEPATITIS, AND METHOD OF TREATING PSORIASIS” (Kurume University, priority 2023, published 2026).

How the values were obtained:
keratinocytes = assay: Imiquimod-induced ATP secretion in keratinocytes; type: cell-based, human; details: 18 hours, N=8 (FIG. 32)
Protocol: In the same manner as in Example 1, keratinocytes were cultured at 2.5×10^4 cells/well in a 24-well plate at 37° C. in 5% CO2 for 4 days. The medium was replaced with HBSS (manufactured by Gibco) supplemented with 1 μM or 10 μM imeglimin, and incubation was performed at 37° C. in 5% CO2 for 18 hours. Thereafter, imiquimod was added thereto at 1 μg/ml or 0.5 μg/ml, and incubation was performed for 15 minutes, followed by collection of 200 μl of the supernatant. The supernatant was immediately treated on a heat block at 95° C. for 10 minutes, and ATP in the supernatant was quantified using a ATP Assay Kit—Luminescence (manufactured by Dojindo) (N=8).

[1] = cited from earlier work
[2] = tested on: chromaffin granule membrane; assay: ATP transport (uptake of radiolabeled ATP) in chromaffin granule membrane vesicles; type: biochemical, cattle; details: role: inhibitor; 1 mM 3H-ATP, 30° C., 1 hour, N=3 (FIG. 5); read-out: IC50 (concentration at 50% inhibition) of ATP transport
Protocol: (§1) Chromaffin granule membranes were prepared from adrenal glands collected from slaughtered cattle according to Reference A (Nathan Nelson et al., 1988, Chromaffin Granule Proton Pump, Methods in Enzymology, 157, 619-633). Chromaffin granule membranes prepared by sucrose density gradient centrifugation were suspended in 2 ml of SME buffer (20 mM MOPS-tris (pH 7.0), 0.3 M sucrose, 5 mM EDTA, 10 μg/ml leupeptin, and 10 μg/ml pepstatin)+25% glycerol, and the resulting suspension was aliquoted and stored at −80° C. Under these conditions, the ATP transport activity, the V-ATPase activity, and the catecholamine transport activity remain fully active for at least one year.
An ATP transport inhibition experiment for the chromaffin granule membrane was carried out according to Reference B (Yoshinori Moriyama et al., 2022, Is the vesicular nucleotide transporter a molecular target of eicosapentaenoic acid?, Frontiers in Pharmacology, 103389). About 20 μg of chromaffin granule membranes were added to 0.5 ml of measurement buffer (20 mM MOPS-tris (pH 7.0), 0.3 M sucrose, 5 mM potassium chloride, 5 mM magnesium acetate, 5 mM creatine phosphate, 10 units of creatine kinase, and 1 mM 3[H]-ATP [15 KBq/assay]), followed by incubation at 30° C. for 1 hour. Through a Millipore MCE membrane filter with a pore size […], 0.2 ml of the reaction liquid was filtered by suction. Thereafter, the filter was washed with 10 ml of 20 mM MOPS-tris (pH 7.0), 0.3 M sucrose, 5 mM potassium chloride, and 5 mM magnesium acetate, and dissolved in 10 ml of Clear-sol II (manufactured by Nacalai Tesque, Inc.). The radioactivity was then measured using a liquid scintillation counter (N=3).
The reaction was initiated by adding 50 mM ^3[H]-ATP to a final concentration of 1 mM. The 50 mM ^3[H]-ATP was prepared by mixing an ATP-tris solution (manufactured by Sigma-Aldrich) with [2,8-^3H]adenosine triphosphate tetrasodium salt (26.0 Ci/mmol) (manufactured by New England Nuclear). PEP was used as a test reagent, and pyruvic acid was used as a negative control. Five minutes before the addition of ATP, PEP or pyruvic acid, as a solution in 20 mM MOPS-tris (pH 7.0), 0.3 M sucrose, 5 mM potassium chloride, and 5 mM magnesium acetate, was added to the measurement liquid to a final PEP concentration of 0.02, 0.05, 0.1, 0.2, 0.4, or 1 mM, or to a final pyruvic acid concentration of 0.5 or 1 mM.
(§2) Chromaffin granule membrane vesicles were prepared in the same manner as in Example 5, and uptake of radiolabeled ATP into the vesicles was measured. Transport activity of catecholamine (dopamine) and ATP-dependent proton transport by V-ATPase were also measured in the same manner as in Example 5.

[3] = tested on: catecholamine transport of chromaffin granule membranes; assay: Catecholamine (dopamine) transport in chromaffin granule membranes; type: biochemical, cattle; details: role: inhibitor
Protocol: as §1
A catecholamine transport inhibition experiment was carried out in the same manner as the ATP transport experiment except that the experiment used a measurement liquid containing 20 mM MOPS-tris (pH 7.0), 0.1 M sucrose, 0.1 M potassium chloride, 5 mM magnesium acetate, and about 5 μg of chromaffin granule membranes. To 0.5 ml of the measurement liquid, 2 mM ATP was added, and the resulting mixture was incubated at 30° C. for about 5 minutes, followed by addition of 3[H]-dopamine thereto to a final concentration of 10 μM. After further incubation at 30° C. for 15 minutes, 0.2 ml of the reaction liquid was subjected to suction filtration through a Millipore MCE membrane filter with a pore size of 0.45 μm, and the radioactivity on the filter was measured (N=3). The substrate, 3[H]-dopamine, was prepared by mixing 3,4-[RING-2,5,6-^3H]dihydroxyphenylethylamine (dopamine) (30 Ci/mmol) (manufactured by New England Nuclear) with dopamine hydrochloride (manufactured by LKT Laboratories) such that a final concentration of […] was achieved during the use.
as §2

V-ATPase = biological target: T1, V-ATPase (Bos taurus, UniProt P31404+P31408); assay: ATP-dependent proton transport by V-ATPase (acridine orange fluorescence quenching); type: biochemical, cattle; details: role: inhibitor
T1 construct: Chromaffin granule membranes were prepared from adrenal glands collected from slaughtered cattle; from tissue; host or cells: cattle adrenal glands, chromaffin granule membranes (sucrose density gradient)
T1 sequence (P31404 whole entry, looked up): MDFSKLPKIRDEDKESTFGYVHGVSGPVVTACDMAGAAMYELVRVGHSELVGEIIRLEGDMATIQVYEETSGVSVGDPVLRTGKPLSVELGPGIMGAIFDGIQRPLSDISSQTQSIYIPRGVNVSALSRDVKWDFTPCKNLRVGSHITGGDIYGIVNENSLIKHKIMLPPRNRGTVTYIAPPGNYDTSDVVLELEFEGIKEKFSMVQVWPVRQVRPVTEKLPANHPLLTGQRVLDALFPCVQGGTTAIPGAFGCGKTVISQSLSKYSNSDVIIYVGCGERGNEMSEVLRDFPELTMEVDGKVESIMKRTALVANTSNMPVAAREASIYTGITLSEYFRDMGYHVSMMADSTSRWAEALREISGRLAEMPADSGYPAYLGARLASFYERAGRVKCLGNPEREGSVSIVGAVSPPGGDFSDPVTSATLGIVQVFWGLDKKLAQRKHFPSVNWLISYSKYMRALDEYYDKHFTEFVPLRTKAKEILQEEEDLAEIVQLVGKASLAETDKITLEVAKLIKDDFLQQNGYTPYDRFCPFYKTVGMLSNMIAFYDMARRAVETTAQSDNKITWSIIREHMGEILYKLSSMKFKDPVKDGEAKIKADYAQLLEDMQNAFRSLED
T1 sequence (P31408 whole entry, looked up): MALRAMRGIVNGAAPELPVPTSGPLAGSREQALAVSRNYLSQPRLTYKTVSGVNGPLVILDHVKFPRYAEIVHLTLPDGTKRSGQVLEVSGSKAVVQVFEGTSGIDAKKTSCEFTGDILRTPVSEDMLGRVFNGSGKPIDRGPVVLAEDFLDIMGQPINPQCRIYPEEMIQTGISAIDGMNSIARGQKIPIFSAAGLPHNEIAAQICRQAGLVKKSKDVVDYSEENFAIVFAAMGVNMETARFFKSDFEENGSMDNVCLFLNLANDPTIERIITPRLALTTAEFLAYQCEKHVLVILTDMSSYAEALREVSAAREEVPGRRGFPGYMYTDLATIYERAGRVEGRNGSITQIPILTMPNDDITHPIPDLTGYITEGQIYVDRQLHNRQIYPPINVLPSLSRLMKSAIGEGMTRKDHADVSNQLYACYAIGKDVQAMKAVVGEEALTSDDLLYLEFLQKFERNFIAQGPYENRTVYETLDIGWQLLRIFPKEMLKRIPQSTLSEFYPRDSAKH
Protocol: as §1
ATP-dependent proton transport by V-ATPase was measured according to Reference B. Proton transport activity was measured using a spectrofluorometer at excitation wavelength of 492 nm and a fluorescence wavelength 540 nm, wherein fluorescence quenching of acridine orange was used as an index (N=2). The transmembrane potential generated was measured using a spectrofluorometer at an excitation wavelength of 580 nm and a fluorescence wavelength of 630 nm, wherein fluorescence quenching of oxonol-V was used as an index (N=2). The acridine measurement liquid (2 ml) contained 20 mM MOPS-tris (pH 7.0), 0.2 M sucrose, 0.1 M potassium chloride, 5 mM magnesium acetate, 0.2 μg valinomycin, 2 μM acridine orange, and about 20 μg of chromaffin granules. The oxonol-V measurement liquid (2 ml) contained 20 mM MOPS-tris (pH 7.0), 0.3 M sucrose, 5 mM magnesium acetate, 5 μM oxonol-V, and about 20 μg of chromaffin granules.
as §2

[4] = up to 5 mM PEP (data not shown)

For `C[C@@H]1N=C(N)NC(N(C)C)=N1` [imeglimin], the “imiquimod-promoted ATP secretion” value (keratinocytes; 1 μM imeglimin) is listed as “strongly inhibited”, the “imiquimod-promoted ATP secretion” value (keratinocytes; 10 NM imeglimin (so in the source)) is listed as “strongly inhibited” and the concentration ([1]; 1 g of imeglimin hydrochloride daily for one week, 10080 min, read-out: blood imeglimin concentration) is listed as 9 µM. For the same compound, the “transfer into the body” value ([1]; imeglimin) was “extremely low transfer into the body”.
With `C=C(OP(=O)(O)O)C(=O)O` [PEP, phosphoenolpyruvic acid] the IC50 [2] was 25 µM, the “ATP-dependent dopamine transport activity” value ([3]; 5 mM PEP, 10 μM 3H-dopamine, 2 mM ATP, N=3, control 11.07±0.129) was 12.41±0.250 nmol/mg protein and the “inhibition of catecholamine transport” value [3, 4] was “did not inhibit”. For the same compound, the “change in acridine orange quenching level” value (V-ATPase; 5 mM PEP, in presence of ATP, N=2) was “did not change the level of quenching” and the “inhibition of V-ATPase” value (V-ATPase; [4]) was “did not inhibit”.
